Measured values: patent US20240208957A1, “TRIAZINE DERIVATIVE AS REVERSIBLE AND IRREVERSIBLE COVALENT INHIBITORS OF PI3K” (UNIVERSITÄT BASEL, priority 2021, published 2024)
pIC50, pKi: −log10 of the molar value. Read-outs that look alike come from different tables or passages of the source.

Legend:
[1] = tested on: pSer473 of PKB/Akt in SKOV3 cells; assay: In-Cell Western cellular PI3K signaling, pSer473 of PKB/Akt in SKOV3 cells; format: cell-based; details: Homo sapiens
Method: Protein phosphorylation was detected as follows: pSer473 of PKB/Akt with rabbit polyclonal antibody from Cell Signaling Technology (CST) (#4058) by In-Cell Western assays, where 1.2×10^4 SKOV3 cells/well in 96-well plates were plated (Cell Carrier, PerkinElmer) for 24 hours (37° C., 5% CO2), as described in Ref.^21.

p110α (PI3Kα) = p110α (PI3Kα) (Homo sapiens, UniProt P42336); assay: LanthaScreen determination of kinetic constants (kinact, Ki) for p110α; format: binding; details: for pKi: dissociation constant of the first reversible binding, mean of 3; for kinact: read-out: kinact PI3Kα;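 as to all read-outs here: covalent inhibition constants for p110α come from LanthaScreen data, fitted globally by numerical integration in KinTek Global Kinetic Explorer software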
[2] = SK-OV-3, SKOV3 cells, mean of 2 or 3 independent measurements, read-out: IC50 pPKB (S473) SKOV3
[3] = mean of 3 independent measurements, global fitting with KinTek
[4] = SK-OV-3, read-out: IC50 pPKB (S473) SKOV3

p110α (PI3Kα), sequence (P42336 whole entry): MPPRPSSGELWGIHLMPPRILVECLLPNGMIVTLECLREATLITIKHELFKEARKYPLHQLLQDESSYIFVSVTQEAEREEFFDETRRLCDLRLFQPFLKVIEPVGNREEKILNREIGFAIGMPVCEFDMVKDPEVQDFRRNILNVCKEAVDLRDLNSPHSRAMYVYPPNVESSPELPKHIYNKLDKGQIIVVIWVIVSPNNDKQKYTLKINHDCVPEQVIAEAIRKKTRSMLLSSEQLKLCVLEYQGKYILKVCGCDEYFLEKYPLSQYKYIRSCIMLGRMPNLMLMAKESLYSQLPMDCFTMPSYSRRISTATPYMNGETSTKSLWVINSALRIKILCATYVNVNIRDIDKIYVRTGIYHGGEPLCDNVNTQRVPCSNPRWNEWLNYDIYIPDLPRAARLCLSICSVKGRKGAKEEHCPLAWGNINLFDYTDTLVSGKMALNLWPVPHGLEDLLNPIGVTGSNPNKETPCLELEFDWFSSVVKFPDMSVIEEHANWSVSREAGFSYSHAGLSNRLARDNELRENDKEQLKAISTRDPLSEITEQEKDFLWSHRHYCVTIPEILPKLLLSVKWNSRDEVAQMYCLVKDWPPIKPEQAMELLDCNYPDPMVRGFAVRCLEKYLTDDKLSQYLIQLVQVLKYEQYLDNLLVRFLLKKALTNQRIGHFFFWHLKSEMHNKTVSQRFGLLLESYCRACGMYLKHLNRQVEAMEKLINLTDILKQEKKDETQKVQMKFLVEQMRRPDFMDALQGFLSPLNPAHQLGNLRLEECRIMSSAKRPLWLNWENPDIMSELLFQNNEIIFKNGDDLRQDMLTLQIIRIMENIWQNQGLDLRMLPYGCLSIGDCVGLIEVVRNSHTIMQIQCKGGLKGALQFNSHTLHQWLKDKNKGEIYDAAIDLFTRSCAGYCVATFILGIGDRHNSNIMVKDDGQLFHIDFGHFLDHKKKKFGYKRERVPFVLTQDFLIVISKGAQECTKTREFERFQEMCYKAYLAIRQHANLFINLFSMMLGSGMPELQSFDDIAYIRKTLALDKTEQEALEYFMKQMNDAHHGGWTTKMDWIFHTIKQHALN
p110α (PI3Kα), sequence (P27986 whole entry partner): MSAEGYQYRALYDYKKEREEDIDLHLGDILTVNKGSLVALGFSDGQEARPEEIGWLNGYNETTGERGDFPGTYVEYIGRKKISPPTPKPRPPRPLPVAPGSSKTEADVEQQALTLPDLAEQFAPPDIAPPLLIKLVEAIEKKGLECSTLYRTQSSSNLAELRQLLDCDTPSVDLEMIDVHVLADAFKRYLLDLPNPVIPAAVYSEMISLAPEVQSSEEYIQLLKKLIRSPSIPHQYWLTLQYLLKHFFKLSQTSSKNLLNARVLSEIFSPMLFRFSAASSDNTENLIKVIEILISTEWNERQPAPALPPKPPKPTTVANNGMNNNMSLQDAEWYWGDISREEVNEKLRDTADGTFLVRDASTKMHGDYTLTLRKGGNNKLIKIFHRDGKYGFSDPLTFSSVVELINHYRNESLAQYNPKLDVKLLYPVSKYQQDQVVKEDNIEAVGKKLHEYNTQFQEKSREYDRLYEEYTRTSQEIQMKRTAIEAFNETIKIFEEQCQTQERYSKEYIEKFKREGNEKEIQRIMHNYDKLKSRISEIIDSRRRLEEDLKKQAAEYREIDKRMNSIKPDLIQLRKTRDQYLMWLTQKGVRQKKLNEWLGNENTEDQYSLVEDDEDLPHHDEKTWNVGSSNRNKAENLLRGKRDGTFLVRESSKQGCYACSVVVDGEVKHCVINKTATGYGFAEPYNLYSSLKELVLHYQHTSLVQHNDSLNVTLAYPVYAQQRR

| pIC50 [1, 2] | kinact/KI (p110α (PI3Kα); PI3Kα, read-out: kinact/Ki) [M⁻¹ s⁻¹] | pKi (p110α (PI3Kα)) | kinact (p110α (PI3Kα); [3]) [s⁻¹] | SMILES | pIC50 [1, 4] | kinact/KI (p110α (PI3Kα)) [M⁻¹ s⁻¹] | kinact (p110α (PI3Kα)) [s⁻¹] |
| --- | --- | --- | --- | --- | --- | --- | --- |
| 6.63 |  |  |  | C/C=C/C(=O)N1CC(C(=O)N(C)CC(=O)N2CCN(c3nc(-c4cnc(N)nc4C(F)F)nc(N4CCOCC4)n3)CC2)C1 [Compound 34, (E)-N-(2-(4-(4-(2-amino-4-(difluoromethyl)pyrimidin-5-yl)-6-morpholino-1,3,5-triazin-2-yl)piperazin-1-yl)-2-oxoethyl)-1-(but-2-enoyl)-N-methylazetidine-3-carboxamide] |  |  |  |
|  | 224000 | 8.14 | 0.00163 | C=CC(=O)N1CCO[C@@H](COCC(=O)N2CCN(c3nc(-c4cnc(N)nc4C(F)F)nc(N4CCOC[C@@H]4C)n3)CC2)C1 [Compound 40, 1-((R)-2-((2-(4-(4-(2-amino-4-(difluoromethyl)pyrimidin-5-yl)-6-((S)-3-methylmorpholino)-1,3,5-triazin-2-yl)piperazin-1-yl)-2-oxoethoxy)methyl)morpholino)prop-2-en-1-one] |  |  |  |
| 7.32 |  |  |  | C=CC(=O)N1CC(C(=O)NCCN2CCN(c3nc(-c4cnc(N)nc4C(F)F)nc(N4CCOCC4)n3)CC2)C1 [Compound 36, 1-acryloyl-N-(2-(4-(4-(2-amino-4-(difluoromethyl)pyrimidin-5-yl)-6-morpholino-1,3,5-triazin-2-yl)piperazin-1-yl)ethyl)azetidine-3-carboxamide] |  |  |  |
|  | 75400 | 8.15 | 0.000537 | C=CC(=O)N1CCO[C@H](COCC(=O)N2CCN(c3nc(-c4cnc(N)nc4C(F)F)nc(N4CCOC[C@@H]4C)n3)CC2)C1 [Compound 42, 1-((S)-2-((2-(4-(4-(2-amino-4-(difluoromethyl)pyrimidin-5-yl)-6-((S)-3-methylmorpholino)-1,3,5-triazin-2-yl)piperazin-1-yl)-2-oxoethoxy)methyl)morpholino)prop-2-en-1-one] |  |  |  |
|  | 1.04e+06 | 7.86 | 0.0143 | C[C@H]1COCCN1c1nc(-c2cnc(N)nc2C(F)F)nc(N2CCN(C(=O)COC[C@@H]3CN(C(=O)/C(C#N)=C\C4CC4)CCO3)CC2)n1 [Compound 43, (Z)-2-((S)-2-((2-(4-(4-(2-amino-4-(difluoromethyl)pyrimidin-5-yl)-6-((S)-3-methylmorpholino)-1,3,5-triazin-2-yl)piperazin-1-yl)-2-oxoethoxy)methyl)morpholine-4-carbonyl)-3-cyclopropylacrylonitrile] |  |  |  |
|  | 1.05e+06 | 7.94 | 0.0121 | C[C@H]1COCCN1c1nc(-c2cnc(N)nc2C(F)F)nc(N2CCN(C(=O)COC[C@H]3CN(C(=O)/C(C#N)=C\C4CC4)CCO3)CC2)n1 [Compound 41, (Z)-2-((R)-2-((2-(4-(4-(2-amino-4-(difluoromethyl)pyrimidin-5-yl)-6-((S)-3-methylmorpholino)-1,3,5-triazin-2-yl)piperazin-1-yl)-2-oxoethoxy)methyl)morpholine-4-carbonyl)-3-cyclopropylacrylonitrile] |  |  |  |

The next lines start with the compound.

| SMILES | pIC50 [1, 2] | kinact/KI (p110α (PI3Kα); PI3Kα, read-out: kinact/Ki) [M⁻¹ s⁻¹] | pKi (p110α (PI3Kα)) | kinact (p110α (PI3Kα); [3]) [s⁻¹] | pIC50 [1, 4] | kinact/KI (p110α (PI3Kα)) [M⁻¹ s⁻¹] | kinact (p110α (PI3Kα)) [s⁻¹] |
| --- | --- | --- | --- | --- | --- | --- | --- |
| N#C/C(=C/C1CC1)C(=O)N1CC[C@H](COCC(=O)N2CCN(c3nc(-c4cnc(N)nc4C(F)F)nc(N4CCOCC4)n3)CC2)C1 [Compound 9, (S,Z)-2-(3-((2-(4-(4-(2-amino-4-(difluoromethyl)pyrimidin-5-yl)-6-morpholino-1,3,5-triazin-2-yl)piperazin-1-yl)-2-oxoethoxy)methyl)pyrrolidine-1-carbonyl)-3-cyclopropylacrylonitrile] | 7.84 | 9.43e+06 | 8.95 | 0.0105 |  |  |  |
| Nc1ncc(-c2nc(N3CCOCC3)nc(N3CCN(C(=O)COC[C@H]4CCCN(C(=O)/C=C/CF)C4)CC3)n2)c(C(F)F)n1 [Compound 14, (S,E)-1-(3-((2-(4-(4-(2-amino-4-(difluoromethyl)pyrimidin-5-yl)-6-morpholino-1,3,5-triazin-2-yl)piperazin-1-yl)-2-oxoethoxy)methyl)piperidin-1-yl)-4-fluorobut-2-en-1-one] | 7.65 |  | 8.72 |  |  |  |  |
| N#C/C(=C/C1CC1)C(=O)N1CCC[C@@H](COCC(=O)N2CCN(c3nc(-c4cnc(N)nc4C(F)F)nc(N4CCOCC4)n3)CC2)C1 [Compound 8, (R,Z)-2-(3-((2-(4-(4-(2-amino-4-(difluoromethyl)pyrimidin-5-yl)-6-morpholino-1,3,5-triazin-2-yl)piperazin-1-yl)-2-oxoethoxy)methyl)piperidine-1-carbonyl)-3-cyclopropylacrylonitrile] |  |  | 8.56 |  | 7.94 | 3.96e+06 | 0.011 |
| C=CC(=O)N1CCC[C@H](COCC(=O)N2CCN(c3nc(-c4cnc(N)nc4C(F)F)nc(N4CCOC[C@@H]4C)n3)CC2)C1 [Compound 2, 1-((S)-3-((2-(4-(4-(2-amino-4-(difluoromethyl)pyrimidin-5-yl)-6-((S)-3-methylmorpholino)-1,3,5-triazin-2-yl)piperazin-1-yl)-2-oxoethoxy)methyl)piperidin-1-yl)prop-2-en-1-one] | 7.54 | 94300 | 8.56 | 0.000262 |  |  |  |
| C=CC(=O)N1CC[C@H](COCC(=O)N2CCN(c3nc(-c4cnc(N)nc4C(F)F)nc(N4CCOC[C@@H]4C)n3)CC2)C1 [Compound 3, 1-((S)-3-((2-(4-(4-(2-amino-4-(difluoromethyl)pyrimidin-5-yl)-6-((S)-3-methylmorpholino)-1,3,5-triazin-2-yl)piperazin-1-yl)-2-oxoethoxy)methyl)pyrrolidin-1-yl)prop-2-en-1-one] | 7.64 | 502000 |  | 0.000432 |  |  |  |
| C=C(F)C(=O)N1CCC[C@H](COCC(=O)N2CCN(c3nc(-c4cnc(N)nc4C(F)F)nc(N4CCOCC4)n3)CC2)C1 [Compound 12, (S)-1-(3-((2-(4-(4-(2-amino-4-(difluoromethyl)pyrimidin-5-yl)-6-morpholino-1,3,5-triazin-2-yl)piperazin-1-yl)-2-oxoethoxy)methyl)piperidin-1-yl)-2-fluoroprop-2-en-1-one] | 7.81 |  |  |  |  |  |  |
| C=CC(=O)N1CCC[C@@H](OCCC(=O)N2CCN(c3nc(-c4cnc(N)nc4C(F)F)nc(N4CCOC[C@@H]4C)n3)CC2)C1 [Compound 5, 1-((R)-3-(3-(4-(4-(2-amino-4-(difluoromethyl)pyrimidin-5-yl)-6-((S)-3-methylmorpholino)-1,3,5-triazin-2-yl)piperazin-1-yl)-3-oxopropoxy)piperidin-1-yl)prop-2-en-1-one] |  |  | 8.05 |  | 7.77 | 595000 | 0.0052 |
| C=CC(=O)N1CCC[C@@H](C(=O)NCCN2CCN(c3nc(-c4cnc(N)nc4C(F)F)nc(N4CCOCC4)n3)CC2)C1 [Compound 19, (R)-1-acryloyl-N-(2-(4-(4-(2-amino-4-(difluoromethyl)pyrimidin-5-yl)-6-morpholino-1,3,5-triazin-2-yl)piperazin-1-yl)ethyl)piperidine-3-carboxamide] | 7.54 | 16300 | 7.92 | 0.000196 |  |  |  |
| N#C/C(=C/C1CC1)C(=O)N1CC[C@@H](COCC(=O)N2CCN(c3nc(-c4cnc(N)nc4C(F)F)nc(N4CCOCC4)n3)CC2)C1 [Compound 10, (R,Z)-2-(3-((2-(4-(4-(2-amino-4-(difluoromethyl)pyrimidin-5-yl)-6-morpholino-1,3,5-triazin-2-yl)piperazin-1-yl)-2-oxoethoxy)methyl)pyrrolidine-1-carbonyl)-3-cyclopropylacrylonitrile] | 7.64 | 1.02e+07 | 8.96 | 0.0111 |  |  |  |
| C=CC(=O)N1CC[C@@H](COCC(=O)N2CCN(c3nc(-c4cnc(N)nc4C(F)F)nc(N4CCOC[C@@H]4C)n3)CC2)C1 [Compound 4, 1-((R)-3-((2-(4-(4-(2-amino-4-(difluoromethyl)pyrimidin-5-yl)-6-((S)-3-methylmorpholino)-1,3,5-triazin-2-yl)piperazin-1-yl)-2-oxoethoxy)methyl)pyrrolidin-1-yl)prop-2-en-1-one] | 7.45 | 325000 | 7.93 | 0.00383 |  |  |  |
| C=CC(=O)N1CCC[C@@H](COCC(=O)N2CCN(c3nc(-c4cnc(N)nc4C(F)F)nc(N4CCOC[C@@H]4C)n3)CC2)C1 [Compound 1, 1-((R)-3-((2-(4-(4-(2-amino-4-(difluoromethyl)pyrimidin-5-yl)-6-((S)-3-methylmorpholino)-1,3,5-triazin-2-yl)piperazin-1-yl)-2-oxoethoxy)methyl)piperidin-1-yl)prop-2-en-1-one] |  |  | 8.57 |  | 7.60 | 156000 | 0.000419 |
| Nc1ncc(-c2nc(N3CCOCC3)nc(N3CCN(C(=O)COC[C@@H]4CCCN(C(=O)/C=C/CF)C4)CC3)n2)c(C(F)F)n1 [Compound 13, (R,E)-1-(3-((2-(4-(4-(2-amino-4-(difluoromethyl)pyrimidin-5-yl)-6-morpholino-1,3,5-triazin-2-yl)piperazin-1-yl)-2-oxoethoxy)methyl)piperidin-1-yl)-4-fluorobut-2-en-1-one] | 7.74 |  |  |  |  |  |  |
| C=C(F)C(=O)N1CCC[C@@H](COCC(=O)N2CCN(c3nc(-c4cnc(N)nc4C(F)F)nc(N4CCOCC4)n3)CC2)C1 [Compound 11, (R)-1-(3-((2-(4-(4-(2-amino-4-(difluoromethyl)pyrimidin-5-yl)-6-morpholino-1,3,5-triazin-2-yl)piperazin-1-yl)-2-oxoethoxy)methyl)piperidin-1-yl)-2-fluoroprop-2-en-1-one] | 7.70 |  | 8.73 |  |  |  |  |
